Source: US20180251431A1 (VERTEX PHARMACEUTICALS INCORPORATED, priority 2016, published 2018)
Where two headings read alike, the source gives them in different places.

Test system: HEK293 cells
Assay: HEK293 VLCFA-LPC IC50 determination (13C-labeled C26:0 LPC by UHPLC/MS)
Type: cell-based, human
Conditions: Homo sapiens, average of one or more replicates, read-out: Average HEK293 IC50
In short: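 Suspension HEK293 cells (final 0.5 million/mL after mixing with equal volume) incubated 48 hours with compound plus 13C-acetate (1.0 mg/mL in added media), shaking at 37° C. Lipids extracted with hexane/isopropanol or methanol, C13:0 LPC standard. UHPLC/MS of 13C-labeled C26:0 LPC (638.500/104.100 m/z); IC50 by four-parameter fit.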

| Compound | IC50 (HEK293, HEK293 cells) [nM] | IC50 (HEK293, 48 h, 13C-labeled C26:0 LPC, 48 hours) [nM] |
| --- | --- | --- |
| O=C(Nc1ccn(-c2ccnc(F)c2)n1)C1(c2ccc(F)cc2)CC1 [Compound 255, 1-(4-fluorophenyl)-N-[1-(2-fluoro-4-pyridyl)pyrazol-3-yl]cyclopropanecarboxamide] | 100 |  |
| O=C(Cc1cnccn1)Nc1ccn(-c2ccccc2)n1 [Compound 219, N-(1-phenylpyrazol-3-yl)-2-pyrazin-2-yl-acetamide] | > 5000 |  |
| O=C(Nc1ccn(-c2ccnnc2)n1)C1(c2ccccc2F)CC1 [Compound 202, 1-(2-fluorophenyl)-N-(1-pyridazin-4-ylpyrazol-3-yl)cyclopropanecarboxamide] | 95 |  |
| Cc1cccc(C2(C(=O)Nc3ccn(-c4ccccc4)n3)CC2)c1 [Compound 32, 1-(m-tolyl)-N-(1-phenylpyrazol-3-yl)cyclopropanecarboxamide] | 650 |  |
| O=C(Nc1ccn(-c2ccc(F)nc2)n1)C1(c2ccccc2F)CC1 [Compound 377, 1-(2-fluorophenyl)-N-[1-(6-fluoro-3-pyridyl)pyrazol-3-yl]cyclopropanecarboxamide] |  | 23 |
| COc1ccnc(-n2ccc(NC(=O)C3(c4ccccc4F)CC3)n2)c1 [Compound 501, 1-(2-fluorophenyl)-N-[1-(4-methoxy-2-pyridyl)pyrazol-3-yl]cyclopropanecarboxamide] | > 5000 |  |
| CC(C)C(C(=O)Nc1ccn(-c2ccccc2)n1)c1ccccc1 (stereo not drawn) [Compound 31, 3-methyl-2-phenyl-N-(1-phenylpyrazol-3-yl)butanamide] | > 2000 |  |
| O=C(Cc1ccc(Cl)c(Cl)c1)Nc1ccn(-c2ccccc2)n1 [Compound 68, 2-(3,4-dichlorophenyl)-N-(1-phenylpyrazol-3-yl)acetamide] | > 5000 |  |
| O=C(Cc1ccccc1F)Nc1ccn(-c2ccc(C(F)(F)F)cc2)n1 [Compound 155, 2-(2-fluorophenyl)-N-[1-[4-(trifluoromethyl)phenyl]pyrazol-3-yl]acetamide] | > 5000 |  |
| O=C(Cc1cccc(F)c1F)Nc1ccn(-c2ccccc2)n1 [Compound 60, 2-(2,3-difluorophenyl)-N-(1-phenylpyrazol-3-yl)acetamide] | > 2000 |  |
| [2H]C([2H])([2H])Oc1ncc(-n2ccc(NC(=O)C3(c4ccccc4F)CC3)n2)cc1F [Compound 441, 1-(2-fluorophenyl)-N-[1-[5-fluoro-6-(trideuteriomethoxy)-3-pyridyl]pyrazol-3-yl]cyclopropanecarboxamide] | 44 |  |
| O=C(Cc1ccccc1OC(F)(F)F)Nc1ccn(-c2ccccc2)n1 [Compound 54, N-(1-phenylpyrazol-3-yl)-2-[2-(trifluoromethoxy)phenyl]acetamide] | > 5000 |  |
